Laboratory results published in ChEMBL document CHEMBL1124477, “Regional differences in the binding of selective muscarinic receptor antagonists in rat brain: comparison with minimum-energy conformations” (J Med Chem, 1989).

Experiments:
[1] = target: Muscarinic acetylcholine receptor
[2] = target: Muscarinic acetylcholine receptor; remark: listed apart in the source
[3] = target: Muscarinic acetylcholine receptor; remark: listed apart in the source
[4] = target: Muscarinic acetylcholine receptor; design: species or system Rattus norvegicus
[5] = target: Muscarinic acetylcholine receptor; remark: listed apart in the source
[6] = target: Muscarinic acetylcholine receptor; remark: listed apart in the source
[7] = target: Muscarinic acetylcholine receptor; remark: listed apart in the source
[8] = target: Muscarinic acetylcholine receptor; remark: listed apart in the source
[9] = target: Muscarinic acetylcholine receptor; remark: listed apart in the source
[10] = target: Muscarinic acetylcholine receptor; remark: listed apart in the source
[11] = target: Muscarinic acetylcholine receptor; remark: listed apart in the source
[12] = target: Muscarinic acetylcholine receptor; remark: listed apart in the source
[13] = target: Muscarinic acetylcholine receptor; remark: listed apart in the source
[14] = target: Muscarinic acetylcholine receptor; remark: listed apart in the source
[15] = target: Muscarinic acetylcholine receptor; remark: listed apart in the source
[16] = target: Muscarinic acetylcholine receptor; remark: listed apart in the source
[17] = target: Muscarinic acetylcholine receptor; remark: listed apart in the source
[18] = target: Muscarinic acetylcholine receptor; remark: listed apart in the source
[19] = target: Muscarinic acetylcholine receptor; remark: listed apart in the source
[20] = target: Muscarinic acetylcholine receptor; remark: listed apart in the source
[21] = target: Muscarinic acetylcholine receptor; remark: listed apart in the source
[22] = target: Muscarinic acetylcholine receptor; design: species or system Rattus norvegicus; remark: listed apart in the source
[23] = target: Muscarinic acetylcholine receptor; remark: listed apart in the source
[24] = target: Muscarinic acetylcholine receptor; remark: listed apart in the source
[25] = target: Muscarinic acetylcholine receptor; remark: listed apart in the source
[26] = target: Muscarinic acetylcholine receptor; remark: listed apart in the source
[27] = target: Muscarinic acetylcholine receptor; remark: listed apart in the source
[28] = target: Muscarinic acetylcholine receptor; remark: listed apart in the source
[29] = target: Muscarinic acetylcholine receptor; remark: listed apart in the source
[30] = target: Muscarinic acetylcholine receptor; remark: listed apart in the source
[31] = target: Muscarinic acetylcholine receptor; remark: listed apart in the source
[32] = target: Muscarinic acetylcholine receptor; remark: listed apart in the source
[33] = target: Muscarinic acetylcholine receptor; remark: listed apart in the source
[34] = target: Muscarinic acetylcholine receptor; remark: listed apart in the source
[35] = target: Muscarinic acetylcholine receptor; remark: listed apart in the source
[36] = target: Muscarinic acetylcholine receptor; remark: listed apart in the source
[37] = target: Muscarinic acetylcholine receptor; remark: listed apart in the source
[38] = target: Muscarinic acetylcholine receptor; remark: listed apart in the source
[39] = target: Muscarinic acetylcholine receptor; remark: listed apart in the source
[40] = target: Muscarinic acetylcholine receptor; remark: listed apart in the source
[41] = target: Muscarinic acetylcholine receptor; remark: listed apart in the source
[42] = target: Muscarinic acetylcholine receptor; remark: listed apart in the source
[43] = target: Muscarinic acetylcholine receptor; remark: listed apart in the source
[44] = target: Muscarinic acetylcholine receptor; remark: listed apart in the source
[45] = target: Muscarinic acetylcholine receptor; remark: listed apart in the source
[46] = target: Muscarinic acetylcholine receptor; remark: listed apart in the source
[47] = target: Muscarinic acetylcholine receptor; assay type: tissue-based, Rattus norvegicus, Hippocampus
[48] = target: Muscarinic acetylcholine receptor; remark: listed apart in the source
[49] = target: Muscarinic acetylcholine receptor; remark: listed apart in the source
[50] = target: Muscarinic acetylcholine receptor; assay type: tissue-based, Rattus norvegicus, Hippocampus; remark: listed apart in the source
[51] = target: Muscarinic acetylcholine receptor; assay type: tissue-based, Rattus norvegicus, Hippocampus; remark: listed apart in the source
[52] = target: Muscarinic acetylcholine receptor; remark: listed apart in the source
[53] = target: Muscarinic acetylcholine receptor; remark: listed apart in the source
[54] = target: Muscarinic acetylcholine receptor; remark: listed apart in the source
[55] = target: Muscarinic acetylcholine receptor; remark: listed apart in the source
[56] = target: Muscarinic acetylcholine receptor; remark: listed apart in the source
[57] = target: Muscarinic acetylcholine receptor; remark: listed apart in the source
[58] = target: Muscarinic acetylcholine receptor; remark: listed apart in the source
[59] = target: Muscarinic acetylcholine receptor; remark: listed apart in the source
[60] = target: Muscarinic acetylcholine receptor; remark: listed apart in the source

## CCN(CC)CC1CCCCN1CC(=O)N1c2ccccc2C(=O)Nc2cccnc21 (stereo not given) [OTENZEPAD]
[1]
  IC50: 2100 nM
[2]
  IC50: 300 nM
[3]
  IC50: 1200 nM
[4]
  IC50: 4000 nM
[5]
  IC50: 1500 nM
[6]
  IC50: 1000 nM
[7]
  IC50: 610 nM
[8]
  IC50: 420 nM
[9]
  IC50: 4300 nM
[10]
  IC50: 2300 nM
[11]
  IC50: 960 nM
[12]
  IC50: 580 nM
[13]
  IC50: 1400 nM
[14]
  IC50: 2900 nM
[15]
  IC50: 580 nM
[16]
  IC50: 1900 nM
[17]
  IC50: 840 nM
[18]
  IC50: 310 nM
[19]
  IC50: 720 nM
[20]
  IC50: 420 nM
[21]
  IC50: 1300 nM
[22]
  IC50: 1600 nM
[23]
  IC50: 4900 nM
[24]
  IC50: 320 nM
[25]
  IC50: 430 nM
[26]
  IC50: 260 nM
[27]
  IC50: 790 nM
[28]
  IC50: 460 nM
[29]
  IC50: 1000 nM
[30]
  IC50: 6500 nM
[31]
  IC50: 2100 nM
[32]
  IC50: 3200 nM
[33]
  IC50: 5800 nM
[34]
  IC50: 690 nM
[35]
  IC50: 9800 nM
[36]
  IC50: 490 nM
[37]
  IC50: 1400 nM
[38]
  IC50: 7300 nM
[39]
  IC50: 620 nM
[40]
  IC50: 250 nM
[41]
  IC50: 7000 nM
[42]
  IC50: 860 nM
[43]
  IC50: 310 nM
[44]
  IC50: 240 nM
[45]
  IC50: 680 nM
[46]
  IC50: 1800 nM
[47]
  IC50: 6100 nM
[48]
  IC50: 14000 nM
[49]
  IC50: 2000 nM
[50]
  IC50: 3200 nM
[51]
  IC50: 6300 nM
[52]
  IC50: 1700 nM
[53]
  IC50: 230 nM
[54]
  IC50: 310 nM
[55]
  IC50: 490 nM
[56]
  IC50: 260 nM
[57]
  IC50: 570 nM
[58]
  IC50: 4300 nM
[59]
  IC50: 250 nM
[60]
  IC50: 1300 nM
